Assay results from patent publication US8314215B2, “Mild chemically cleavable linker system” (The Board of Trustees of the Leland Stanford Junior …, priority 2006, dated 2012).

Assays:
Test in all cases: LC/MS/MS identification of proteins from mouse liver extracts labeled with MTS-I-49
Type in all cases: biochemical
[1] = test system: acetyl-Coenzyme A dehydrogenase
Source text: (§1) (1991) Irreversible inhibition of serine proteases by peptide derivatives of (alpha-aminoalkyl)phosphonate diphenyl esters. Biochemistry 30, 485-493). However, it has not been used for any proteomic applications. We used MTS-I-49 to label mouse liver extracts and analyze the labeled sample by both SDS-PAGE (FIG. 5B) and by direct chemical cleavage or on bead digestion.
(§2) After enrichment on immobilized avidin, each of the three labeled proteomes (FIG. 5b) was divided into two aliquots. One was prepared for LC-MS/MS analysis by “on bead” digestion, while the other was chemically eluted and digested “in solution.” Proteins identified in each tissue lysate are listed with their accession number and theoretical molecular weight (MW). To compare both approaches, the number of identified peptides and percentage of amino acid sequence coverage is listed for each protein.
(§3) Proteins in the above Table were identified by LC/MS/MS analysis of on bead digested or chemically eluted proteins from mouse liver extracts labeled with MTS-I-49. […] BLAST database searching identified it as liver carboxylesterase 4. A number of additional endogenously biotinylated proteins were identified in the on-bead digested sample.

[2] = biological target: T1, acetyl-Coenzyme acyltransferase 2 (Mus musculus, UniProt Q8BWT1)
T1 construct: from tissue; host or cells: mouse liver extract
T1 sequence (Q8BWT1 1-397): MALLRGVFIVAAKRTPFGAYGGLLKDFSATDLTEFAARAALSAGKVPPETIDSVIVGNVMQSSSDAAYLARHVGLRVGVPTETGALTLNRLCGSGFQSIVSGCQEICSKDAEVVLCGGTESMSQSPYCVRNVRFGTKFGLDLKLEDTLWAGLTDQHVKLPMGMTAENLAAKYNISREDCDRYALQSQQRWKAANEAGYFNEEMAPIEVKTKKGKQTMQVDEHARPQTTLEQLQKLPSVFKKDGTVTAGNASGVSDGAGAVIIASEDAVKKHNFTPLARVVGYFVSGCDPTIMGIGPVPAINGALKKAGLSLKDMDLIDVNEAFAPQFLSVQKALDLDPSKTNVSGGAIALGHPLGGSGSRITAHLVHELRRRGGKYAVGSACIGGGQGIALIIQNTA
Source text: as §1, §2, §3

[3] = biological target: T2, betaine-homocysteine methyltransferase (Mus musculus, UniProt O35490)
T2 construct: from tissue; host or cells: mouse liver extract
T2 sequence (O35490 1-407): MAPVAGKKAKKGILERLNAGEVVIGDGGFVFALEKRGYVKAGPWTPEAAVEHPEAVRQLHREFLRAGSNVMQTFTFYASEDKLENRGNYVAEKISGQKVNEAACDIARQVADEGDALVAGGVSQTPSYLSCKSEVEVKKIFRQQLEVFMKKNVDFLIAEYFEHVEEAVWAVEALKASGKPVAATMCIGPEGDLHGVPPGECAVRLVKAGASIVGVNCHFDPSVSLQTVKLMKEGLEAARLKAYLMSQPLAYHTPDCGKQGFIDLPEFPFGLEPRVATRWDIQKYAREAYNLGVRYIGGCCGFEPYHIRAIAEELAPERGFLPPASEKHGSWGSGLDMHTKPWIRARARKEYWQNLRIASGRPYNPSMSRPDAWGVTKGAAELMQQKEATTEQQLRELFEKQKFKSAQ
Source text: as §1, §2, §3

carbonmonoxy hemoglobin = test system: carbonmonoxy hemoglobin
Source text: as §1, §2, §3

[4] = biological target: T3, propionyl-Coenzyme A carboxylase (Mus musculus, UniProt Q91ZA3)
T3 construct: from tissue; host or cells: mouse liver extract
T3 sequence (Q91ZA3 49-724): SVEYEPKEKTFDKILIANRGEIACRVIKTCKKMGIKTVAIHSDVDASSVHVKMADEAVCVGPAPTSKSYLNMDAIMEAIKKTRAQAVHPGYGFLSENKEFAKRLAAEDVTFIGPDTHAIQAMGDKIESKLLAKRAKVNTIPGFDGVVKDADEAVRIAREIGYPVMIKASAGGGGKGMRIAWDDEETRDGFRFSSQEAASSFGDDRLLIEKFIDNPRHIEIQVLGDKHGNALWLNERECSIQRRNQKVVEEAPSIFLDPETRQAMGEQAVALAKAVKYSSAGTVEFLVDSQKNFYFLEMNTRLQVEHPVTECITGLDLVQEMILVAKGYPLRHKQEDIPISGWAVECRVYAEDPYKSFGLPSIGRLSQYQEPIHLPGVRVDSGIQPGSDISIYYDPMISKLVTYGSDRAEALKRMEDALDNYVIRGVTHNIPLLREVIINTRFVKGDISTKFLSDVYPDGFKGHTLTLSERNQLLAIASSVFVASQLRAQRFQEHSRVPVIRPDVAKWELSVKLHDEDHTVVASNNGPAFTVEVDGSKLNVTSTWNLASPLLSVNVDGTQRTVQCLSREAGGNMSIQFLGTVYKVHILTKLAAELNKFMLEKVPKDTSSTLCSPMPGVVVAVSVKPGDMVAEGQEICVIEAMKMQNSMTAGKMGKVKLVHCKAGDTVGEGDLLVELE
T3 sequence (Q99MN9 29-541 partner): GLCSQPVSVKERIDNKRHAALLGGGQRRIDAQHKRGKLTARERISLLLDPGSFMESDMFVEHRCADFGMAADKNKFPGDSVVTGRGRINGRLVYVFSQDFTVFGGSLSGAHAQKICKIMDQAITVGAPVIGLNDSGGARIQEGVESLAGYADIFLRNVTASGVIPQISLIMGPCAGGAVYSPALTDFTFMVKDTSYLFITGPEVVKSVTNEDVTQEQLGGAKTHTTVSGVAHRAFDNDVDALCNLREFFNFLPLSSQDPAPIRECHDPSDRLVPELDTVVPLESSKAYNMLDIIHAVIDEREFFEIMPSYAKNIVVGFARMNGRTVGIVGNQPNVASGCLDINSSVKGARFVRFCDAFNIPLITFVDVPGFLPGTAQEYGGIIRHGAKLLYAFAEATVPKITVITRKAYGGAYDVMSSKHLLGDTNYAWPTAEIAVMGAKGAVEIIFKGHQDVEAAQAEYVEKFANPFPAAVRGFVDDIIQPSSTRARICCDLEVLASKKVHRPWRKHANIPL
Source text: as §1, §2, §3

[5] = chemically eluted, digested in solution

In the case of `C[C@H](NC(=O)c1ccc(N=Nc2cc(CCNC(=O)CCCC[C@@H]3SC[C@@H]4NC(=O)N[C@@H]43)ccc2O)cc1)C(=O)N[C@@H](C)C(=O)NC(Cc1ccccc1)P(=O)(Oc1ccccc1)Oc1ccccc1` (some centres unmarked) [MTS-I-49], the “Chemical Cleavage, number of identified peptides” value (shortened to “Chemical Cleavage, number”) [1, 5] is reported as 0, the “On Bead Digestion, amino acid sequence coverage” value ([1]; on bead digestion) is reported as 34% and the “On Bead Digestion, number of identified peptides” value (“On Bead Digestion, number” for short) ([1]; on bead digestion) is reported as 3. For the same compound, the “Chemical Cleavage, amino acid sequence coverage” value [2, 5] was 15%, the “Chemical Cleavage, number” value [2, 5] was 2 and the “On Bead Digestion, amino acid sequence coverage” value ([2]; on bead digestion) was 26%. For the same compound, the “On Bead Digestion, number” value ([2]; on bead digestion) was 5, the “Chemical Cleavage, number” value [3, 5] was 0 and the “On Bead Digestion, amino acid sequence coverage” value ([3]; on bead digestion) was 19%. For the same compound, the “On Bead Digestion, number” value ([3]; on bead digestion) was 4, the “Chemical Cleavage, number” value (carbonmonoxy hemoglobin; [5]) was 0 and the “On Bead Digestion, amino acid sequence coverage” value (carbonmonoxy hemoglobin; on bead digestion) was 68%. For the same compound, the “On Bead Digestion, number” value (carbonmonoxy hemoglobin; on bead digestion) was 7, the “Chemical Cleavage, amino acid sequence coverage” value [4, 5] was 8% and the “Chemical Cleavage, number” value [4, 5] was 3. The “On Bead Digestion, amino acid sequence coverage” value ([4]; on bead digestion) was 45% and the “On Bead Digestion, number” value ([4]; on bead digestion) was 22.
